Assays:
[1] = target: T1, Transient receptor potential cation channel subfamily V member 6 (Homo sapiens, UniProt Q9H1D0); experiment: Inhibition of TRPV6 (unknown origin) transfected in HEK293 cells assessed as reduction in TRPV6-induced Cd2+ influx
T1 sequence (Q9H1D0 whole entry): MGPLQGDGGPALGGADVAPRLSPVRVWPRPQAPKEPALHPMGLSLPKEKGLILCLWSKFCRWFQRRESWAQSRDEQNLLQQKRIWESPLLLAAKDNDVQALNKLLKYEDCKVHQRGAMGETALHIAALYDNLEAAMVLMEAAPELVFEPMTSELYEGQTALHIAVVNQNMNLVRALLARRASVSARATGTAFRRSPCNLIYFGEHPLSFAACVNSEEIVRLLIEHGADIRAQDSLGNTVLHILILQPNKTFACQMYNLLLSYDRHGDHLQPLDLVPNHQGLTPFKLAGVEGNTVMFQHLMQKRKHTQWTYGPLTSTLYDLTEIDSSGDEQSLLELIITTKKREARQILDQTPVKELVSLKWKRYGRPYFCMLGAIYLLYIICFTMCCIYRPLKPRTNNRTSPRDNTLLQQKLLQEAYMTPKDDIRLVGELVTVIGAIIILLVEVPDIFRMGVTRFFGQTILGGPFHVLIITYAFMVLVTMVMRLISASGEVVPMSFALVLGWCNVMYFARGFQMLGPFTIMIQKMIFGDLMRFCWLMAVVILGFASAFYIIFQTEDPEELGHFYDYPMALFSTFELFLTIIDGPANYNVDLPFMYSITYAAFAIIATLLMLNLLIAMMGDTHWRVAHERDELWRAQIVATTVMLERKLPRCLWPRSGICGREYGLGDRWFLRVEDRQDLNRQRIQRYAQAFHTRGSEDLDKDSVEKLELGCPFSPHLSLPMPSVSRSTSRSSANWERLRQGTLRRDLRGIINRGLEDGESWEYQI

[2] = system: T47D; experiment: Antiproliferative activity against human T47D cells assessed as reduction in cell viability incubated for 72 hrs by XTT assay
[3] = system: LNCaP; experiment: Antiproliferative activity against human LNCaP cells assessed as reduction in cell viability incubated for 72 hrs by XTT assay
[4] = target: T1, Transient receptor potential cation channel subfamily V member 6; experiment: Inhibition of TRPV6 (unknown origin) expressed in Sf9 cells
[5] = target: T1, Transient receptor potential cation channel subfamily V member 6; experiment: Inhibition of TRPV6 (unknown origin)

Compound: Fc1ccc(CCNCc2ccccc2OCc2ccc(F)cc2)cc1
- IC50 [1]: 15 µM

Compound: c1ccc(Oc2cccc(CN3CCN(Cc4cccnc4)CC3)c2)cc1
- IC50 [1]: 17 µM

Compound: COc1cc(Br)ccc1CN1CCN(C2CCC(c3ccccc3)CC2)CC1 (configuration not stated)
- IC50 [1]: 26 µM

Compound: COc1ccc(CCN2CCC[C@@H]2COC(c2ccccc2)c2ccccc2)cc1
- IC50 [2]: 198 µM
- IC50 [3]: 61 µM

Compound: c1ccc(C2CCC(N3CCN(Cc4ccco4)CC3)CC2)cc1 (configuration not stated)
- IC50 [1]: 25 µM

Compound: CCCc1cc(O)c2c(c1)OC(C)(C)[C@@H]1C=CC(C)=C[C@@H]21
- IC50 [4]: 9.4 µM

Compound: CN(C)c1ccc(CCN2CCC[C@@H]2COC(c2ccccc2)c2ccc(Cl)cc2)cc1 (some centres not stated)
- IC50 [2]: 44.5 µM
- IC50 [3]: 0.31 µM

Compound: CN(C)c1ccc(CCN2CCC[C@@H]2CO)cc1
- IC50 [2]: 49.1 µM
- IC50 [3]: 1 µM

Compound: c1ccc(COc2ccccc2CNC23CC4CC(CC(C4)C2)C3)cc1
- IC50 [1]: 21 µM

Compound: COc1ccc(CCN2CCC[C@@H]2COC(c2ccccc2)c2ccc(Cl)cc2)cc1 (some centres not stated)
- IC50 [2]: 220 µM
- IC50 [3]: 50 µM

Compound: COc1ccc(CCN2CCC[C@@H]2COCc2ccc(Cl)cc2)cc1
- IC50 [5]: 0.44 µM
- IC50 [2]: 38.8 µM
- IC50 [3]: 0.44 µM

Source: ChEMBL document CHEMBL5500350, “Advances in TRPV6 inhibitors for tumors by targeted therapies: Macromolecular proteins, synthetic small molecule compounds, and natural compounds” (Eur J Med Chem, 2024)
